Patent publication US7034005B2, “Use of agent for suppressing infection and proliferation of human immunodeficiency syndrome virus” (The Kitasato Institute, priority 2002, dated 2006)
Entries after “also recorded” stand apart in the source; their conditions may differ.

Tested on: HIV-1BAL strain in M type macrophage (M-MΦ) derived from human monocytes
Test: Proliferation of HIV-1 in M-MΦ: p24 protein in culture supernatant by sandwich ELISA
Type: cell-based
Settings: HIV-1BAL; for viral production in M-MΦ at 30 μM: incubated for 10 days (FIGS. 21-25); for production of p24 protein in M-MΦ at various concentrations: incubated for 10 days, compared with DMSO (FIGS. 21-25); for p24 protein / viral proliferation in M-MΦ with kinase inhibitor: 10 μM, up to day 14, compared with control group (FIG. 20)
Method: Macrophages derived from monocytes were prepared by culturing the recovered monocytes in the presence of M-CSF (macrophage colony-stimulating factor) (10^4 U/ml, provided by Morinaga Milk Co.), granulocytes and granulocyte-macrophage colony-stimulating factor, GM-CSF) (500 U/ml, provided by Japan Scheling Plough Co., Osaka, or purchased from R & S Genzyme-TECHNE Inc.) with RPMI1640 medium added with FCS10% (Nissui Seiyaku Co., Tokyo) for 7–8 days.
The macrophage prepared by differential induction of M-CSF from human monocytes is designated as M type macrophage (M type MΦ or M-MΦ) and the macrophage prepared by differential induction of GM-CSF from human monocytes is designated as GM type macrophage (GM type MΦ or GM-MΦ) Further, alveolar macrophage (alveolar MΦ or A-MΦ) was prepared as follows. Cells in the alveolar lavage liquid obtained from the alveolar lavage of healthy volunteers were recovered, suspended and adhered to plastics, then the non-adhered cells were washed out and the remained adhered cells were designated as the alveolar MΦ.
Infection of HIV-1 to macrophage was performed as follows. Macrophage directed viral strains, HIV-1JR-FL and HIV-1BAL, were infected for 2 hours in contact with M-MΦ, GM-MΦ and A-MΦ (adjusted to 2.5×10^5/well, Flacon No3043: Becton Dickinson Labware, Inc. U.S.)at low concentration (p24 antigen titer 50 ng/ml, TCID50=3000/ml virus to final concentration at 100 pg/ml), and non-adsorbed virus to the macrophage was washed out, and cultured with adding fresh medium. In case of the medium with M-MΦ, M-CSF was added (10^4 U/ml), and that of the medium with GM-MΦ, GM-CSF was added (500 U/ml).
Proliferation of virus was examined with the released viral particles in the culture supernatant after the infection by the sandwich ELISA using two types of anti-p24 antibody (Nu24 and 10B5^13). The following JAM62 and JAM65 were used as LTR (HIV long terminal repeat)-gap gene primer. The following JAM63 and JAM 64 were used as the internal primer for the nested PCR. • JAM62: • 5′-[…]-3′ (SEQ ID NO: 1) • JAM65: • 5′-[…]-3′ (SEQ ID NO: 2) • JAM63: • 5′-GTGTOACTCTGGTAACTAGAGATCC-3′ (SEQ ID NO: 3) • JAM64: • 5′-[…]-3′ (SEQ ID NO: 4) (1-4) Assay of Expression of Tyrosine Kinase Hck Protein and Transcription Factor C/EBPβ Protein
In order to show growth suppression effect of the present invention, among macrolide derivatives, EM, EM201, EM202, EM703, CAM, EM722, EM730, EM732, EM736, EM734, EM735, EM747, EM748, EM743, EM746, EM750 or EM751 was dissolved in DMSO with each 100 mM concentration, and used in dilution with the medium thereafter. A control group was M-MΦ treated only with DMSO used for dissolving macrolide derivatives.
M-MΦ and GM-M Φ were subjected to contact infection with HIV-1BAL strain for 2 hours, added 30 μM of EM, EM201, EM202, EM703, CAM,EM722, EM730, EM732, EM736, EM734, EM735, EM747, EM748, EM743, EM746, EM750 or EM751, incubated for 14 days and amount of p24 protein in the cultured supernatant was assayed in the time-dependent manner.

Molecule	viral production in M-MΦ at 30 μM	production of p24 protein in M-MΦ at various concentrations	p24 protein / viral proliferation in M-MΦ with kinase inhibitor
COC1(C)CC(OC2C(C)C(=O)OC(C(C)=NO)C(C)C3=C(C)CC(C)(O3)C(OC3OC(C)CC(N(C)C)C3O)C2C)OC(C)C1O (stereo not shown) [EM743, de(12-hydroxy)-de[12-(1-hydroxypropyl)]-12-hydroxy-oxime-8,9-anhydro-pseudoerythromycin A 6,9-hemiketal]	inhibit almost completely viral production; also recorded: almost complete inhibition	suppressed depending on the concentration of agent	
CC[C@@H](O)[C@@](C)(O)[C@@H]1OC(=O)[C@H](C)[C@@H](O[C@H]2C[C@@](C)(OC)[C@@H](O)[C@H](C)O2)[C@H](C)[C@@H](O[C@@H]2O[C@H](C)C[C@H](N3CCCCC3)[C@H]2O)[C@@]2(C)CC(C)=C(O2)[C@@H]1C [EM734, de(3′-dimethylamino)-3′-piperidino-8,9-anhydro-pseudoerythromycin A 6,9-hemiketal]	inhibit almost completely viral production; also recorded: almost complete inhibition	suppressed depending on the concentration of agent	
CCC(O)C(C)(O)C1OC(=O)C(C)C(O)C(C)C(OC2OC(C)CC(NC)C2O)C2(C)CC(C)=C(O2)C1C (stereo not shown) [EM754, de(3-O-cladinosyl)-de(3′-N-methyl)-8,9-anhydro-pseudoerythromycin A 6,9-hemiketal]	inhibit almost completely viral production; also recorded: almost complete inhibition	suppressed depending on the concentration of agent	
bis-de(3′-N-methyl)-3′-N-benzyl-8,9-anhydro-pseudo-erythromycin A 6,9-hemiketal [EM732]	inhibit almost completely viral production; also recorded: almost complete inhibition	suppressed depending on the concentration of agent	
de[12-(1-hydroxypropyl)]-8,9-anhydro-pseudo-erythromycin A 6,9-hemiketal [EM746]	inhibit almost completely viral production; also recorded: almost complete inhibition	suppressed depending on the concentration of agent	
COc1cccc(-c2cc(=O)c3ccccc3o2)c1N [PD98059, 2-[2-amino-3-methoxyphenyl]-4H-1-benzopyran-4-one, reference compound]			amount of p24 protein was not different in the control group
COC1(C)CC(OC2C(C)C(=O)OC(C(C)N)C(C)C3=C(C)CC(C)(O3)C(OC3OC(C)CC(N(C)C)C3O)C2C)OC(C)C1O (stereo not shown) [EM750, de(12-hydroxy)-de[12-(1-hydroxypropyl)]-12-amino-8,9-anhydro-pseudoerythromycin A 6,9-hemiketal]	inhibit almost completely viral production; also recorded: almost complete inhibition	suppressed depending on the concentration of agent	
CCCNC1CC(C)OC(OC2C(C)C(OC3CC(C)(OC)C(O)C(C)O3)C(C)C(=O)OC(C(C)(O)C(O)CC)C(C)C3=C(C)CC2(C)O3)C1O (stereo not shown) [EM730, bis-de(3′-N-methyl)-3′-N-propyl-8,9-anhydro-pseudo-erythromycin A 6,9-hemiketal]	inhibit almost completely viral production; also recorded: almost complete inhibition	suppressed depending on the concentration of agent	
CN[C@H]1C[C@@H](C)O[C@@H](O[C@@H]2[C@@H](C)[C@H](O[C@H]3C[C@@](C)(OC)[C@@H](O)[C@H](C)O3)[C@@H](C)C(=O)O[C@@H](C(C)O)[C@@H](C)C3=C(C)C[C@@]2(C)O3)[C@@H]1O (stereo partly shown) [EM751, de(3′-N-methyl)-de[12-(1-hydroxypropyl)]-8,9-anhydro-pseudoerythromycin A 6,9-hemiketal]	inhibit almost completely viral production; also recorded: almost complete inhibition	suppressed depending on the concentration of agent	
CC[C@@H](O)[C@@](C)(O)[C@@H]1OC(=O)[C@H](C)[C@@H](O[C@H]2C[C@@](C)(OC)[C@@H](O)[C@H](C)O2)[C@H](C)[C@@H](O[C@@H]2O[C@H](C)C[C@H](N3CCCC3)[C@H]2O)[C@@]2(C)CC(C)=C(O2)[C@@H]1C [EM735, de(3′-dimethylamino)-3′-pyrrolidino-8,9-anhydro-pseudoerythromycin A 6,9-hemiketal]	inhibit almost completely viral production; also recorded: almost complete inhibition	suppressed depending on the concentration of agent	
C[S+]([O-])c1ccc(-c2nc(-c3ccc(F)cc3)c(-c3ccncc3)[nH]2)cc1 (stereo not shown) [SB203580, 4-[4-fluoro-phenyl]-2-[4-methylsulfinylphenyl]-5-[4-pyridyl]-1H-imidazole, reference compound]			no p24 protein was almost detected even on day 14
CC[C@@H](O)[C@@](C)(O)[C@@H]1OC(=O)[C@H](C)[C@@H](O[C@H]2C[C@@](C)(OC)[C@@H](O)[C@H](C)O2)[C@H](C)[C@@H](O[C@@H]2O[C@H](C)C[C@H](NC(C)C)[C@H]2O)[C@@]2(C)CC(C)=C(O2)[C@@H]1C [EM736, bis-de(3′-N-methyl)-3′-N-(2-propyl)-8,9-anhydro-pseudoerythromycin A 6,9-hemiketal]	inhibit almost completely viral production; also recorded: almost complete inhibition	suppressed depending on the concentration of agent	
bis-de(3′-N-methyl)-3′-N-ethyl-8,9-anhydro-pseudo-erythromycin A 6,9-hemiketal [EM722]	inhibit almost completely viral production; also recorded: almost complete inhibition	suppressed depending on the concentration of agent	
CC[C@@H](O)[C@@](C)(O)[C@@H]1OC(=O)[C@H](C)[C@@H](O[C@H]2C[C@@](C)(OC)[C@@H](O)[C@H](C)O2)[C@H](C)[C@@H](O[C@@H]2O[C@H](C)C[C@H](N3CCOCC3)[C@H]2O)[C@@]2(C)CC(C)=C(O2)[C@@H]1C [EM747, de(3′-dimethylamino)-3′-morpholino-8,9-anhydro-pseudoerythromycin A 6,9-hemiketal]	inhibit almost completely viral production; also recorded: almost complete inhibition	suppressed depending on the concentration of agent	
de(3′-dimethylamino)-3′-[hexahydro-1(1H)-azepinyl]-8,9-anhydro-pseudoerythromycin A 6,9-hemiketal [EM748]	inhibit almost completely viral production; also recorded: almost complete inhibition	suppressed depending on the concentration of agent	
